Measurements from patent US11415579B2, “Assay for measuring a rate of reaction between a target and a ligand candidate” (Imperial College Innovations Ltd., priority 2016, dated 2022).

How the values were obtained:
Cdk2(S181C) (C177A) = biological target: T1, Cdk2(S181C) (C177A) (Homo sapiens, UniProt P24941, C177A/S181C); experiment: Kinetic thiol consumption assay with Cdk2 mutant S181C; type: binding; set-up: key to Rate enhancement, Cdk2 S181C: rate constant with Cdk2 ÷ rate constant with model thiol (fold); conditions: additional mutation C177A; for Rate constant with Cdk2 S181C: Protein: Cdk2, cysteine position S181C, in h^-1
T1 construct: poly-histidine; made in house; host or cells: E. coli
Method in brief: (§1)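 His-tagged single-surface-cysteine Cdk2 mutants (C177A background) from E. coli, 5 μM in degassed phosphate buffer pH 8, pre-treated with immobilized TCEP beads. Fluorescence (ex/em 380/470 nm) read after 1 h at room temperature, normalized to DMSO/thiol-only control; first-order decay fits gave rate constants, divided by model-thiol rate for rate enhancement.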

Cdk2(T182C) (C177A) = biological target: T2, Cdk2(T182C) (C177A) (Homo sapiens, UniProt P24941, C177A/T182C); experiment: Kinetic thiol consumption assay with Cdk2 mutant T182C; type: binding; set-up: key to Rate enhancement, Cdk2 T182C: rate constant with Cdk2 ÷ rate constant with model thiol (fold); conditions: additional mutation C177A; for Rate constant with Cdk2 T182C: Protein: Cdk2, cysteine position T182C, in h^-1
T2 construct: poly-histidine; made in house; host or cells: E. coli
Method in brief: as §1

[1] = biological target: T3, human cyclin-dependent kinase 2 (Cdk2) (Homo sapiens, UniProt P24941); experiment: Kinetic thiol consumption assay with wild type Cdk2 (C177); type: binding; set-up: key to Rate enhancement, Cdk2 WT: k(Cdk2) divided by k(model thiol); Rate constant with Cdk2 (k(Cdk2)): unit not given here; conditions: for Rate enhancement, Cdk2 WT: no additional mutations; for Rate constant with Cdk2 WT: Protein: Cdk2, cysteine position WT, in h^-1
T3 construct: poly-histidine; made in house; host or cells: E. coli
Method in brief: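 Thiol 5 μM (Cdk2 or model thiol), degassed phosphate buffer pH 8, TCEP beads 2% v/v. Plates incubated 1 h RT, ex/em 380/470 nm. First-order decay fit → rate constant; ratio Cdk2/model thiol = rate enhancement.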

Cdk2(R122C) (C177A) = biological target: T4, Cdk2(R122C) (C177A) (Homo sapiens, UniProt P24941, C177A/R122C); experiment: Kinetic thiol consumption assay with Cdk2 mutant R122C; type: binding; set-up: key to Rate enhancement, Cdk2 R122C: rate constant with Cdk2 ÷ rate constant with model thiol (fold); conditions: additional mutation C177A; for Rate constant with Cdk2 R122C: Protein: Cdk2, cysteine position R122C, in h-1
T4 construct: poly-histidine; made in house; host or cells: E. coli
Method in brief: as §1

Cdk2(S276C) (C177A) = biological target: T5, Cdk2(S276C) (C177A) (Homo sapiens, UniProt P24941, C177A/S276C); experiment: Kinetic thiol consumption assay with Cdk2 mutant S276C; type: binding; set-up: key to Rate enhancement, Cdk2 S276C: rate constant with Cdk2 ÷ rate constant with model thiol (fold); conditions: additional mutation C177A; for Rate constant with Cdk2 S276C: Protein: Cdk2, cysteine position S276C, in h^-1
T5 construct: poly-histidine; made in house; host or cells: E. coli
Method in brief: as §1

Cdk2(H71C) (C177A) = biological target: T6, Cdk2(H71C) (C177A) (Homo sapiens, UniProt P24941, C177A/H71C); experiment: Kinetic thiol consumption assay with Cdk2 mutant H71C; type: binding; set-up: key to Rate enhancement, Cdk2 H71C: rate constant with Cdk2 ÷ rate constant with model thiol (fold); conditions: additional mutation C177A; for Rate constant with Cdk2 H71C: Protein: Cdk2, cysteine position H71C, in h^-1
T6 construct: poly-histidine; made in house; host or cells: E. coli
Method in brief: as §1

[2] = Kinetic thiol consumption assay with model thiol glutathione; type: physicochemical; set-up: Rate constant with glutathione (k(GSH)): unit not given here; conditions: for Rate constant with Glutathione: Protein: Glutathione, cysteine position NA, in h-1
Method in brief: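 First, 5 μM glutathione in degassed phosphate buffer (pH 8) receives immobilized TCEP beads (2% v/v). Then acrylamide is added and plates incubate 1 h at room temperature. Finally, fluorescence (380/470 nm) is normalized and fitted to first-order decay for rate constants.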

Cdk2(N272C) (C177A) = biological target: T7, Cdk2(N272C) (C177A) (Homo sapiens, UniProt P24941, C177A/N272C); experiment: Kinetic thiol consumption assay with Cdk2 mutant N272C; type: binding; set-up: key to Rate enhancement, Cdk2 N272: rate constant with Cdk2 ÷ rate constant with model thiol (fold); conditions: for Rate enhancement, Cdk2 N272: Cdk2 N272, additional mutation C177A; for Rate constant with Cdk2 N272C: Protein: Cdk2, cysteine position N272C, additional mutation C177A, in h^-1
T7 construct: poly-histidine; made in house; host or cells: E. coli
Method in brief: as §1

Cdk2(C177A, F80C) = biological target: T8, Cdk2(C177A, F80C) (Homo sapiens, UniProt P24941, C177A/F80C); experiment: Kinetic thiol consumption assay with Cdk2 mutant F80C, incl. kobs versus concentration (Kd, k2); type: binding; set-up: key to Rate enhancement, Cdk2 F80C: Cdk2 rate constant divided by model-thiol rate constant; conditions: additional mutation C177A; for Rate constant with Cdk2 F80C: Protein: Cdk2, cysteine position F80C, in h^-1
T8 construct: poly-histidine; made in house; host or cells: E. coli
Method in brief: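 His-tagged Cdk2(C177A/F80C) from E. coli or model thiol, 5 μM in degassed phosphate buffer pH 8 with TCEP beads, reacted with acrylamide ligands; fluorescence (ex/em 380/470 nm) normalized to DMSO control and fitted to first-order decay for kobs. Kd and k2 obtained from hyperbolic fit of kobs versus ligand concentration.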

[3] = 500 μM ligand, 5 μM thiol, phosphate buffer pH 8

Row | Compound | Rate enhancement, Cdk2 S181C (Cdk2(S181C) (C177A)) | Rate constant with Cdk2 S181C (Cdk2(S181C) (C177A)) | Rate enhancement, Cdk2 T182C (Cdk2(T182C) (C177A)) | Rate constant with Cdk2 T182C (Cdk2(T182C) (C177A)) | Rate constant with Cdk2 (k(Cdk2)) [1, 3] | Rate enhancement, Cdk2 WT [1] | Rate constant with Cdk2 WT [1] | k(Cdk2)/k(GSH) rate enhancement ([1]; model thiol glutathione) | Rate enhancement, Cdk2 R122C (Cdk2(R122C) (C177A)) | Rate constant with Cdk2 R122C (Cdk2(R122C) (C177A)) | Rate enhancement, Cdk2 S276C (Cdk2(S276C) (C177A)) | Rate constant with Cdk2 S276C (Cdk2(S276C) (C177A)) | Rate enhancement, Cdk2 H71C (Cdk2(H71C) (C177A)) | Rate constant with glutathione (k(GSH)) [2, 3] | Rate constant with Glutathione [2] | Rate enhancement, Cdk2 N272 (Cdk2(N272C) (C177A)) | Rate constant with Cdk2 N272C (Cdk2(N272C) (C177A)) | Rate enhancement, Cdk2 F80C (Cdk2(C177A, F80C)) | Rate constant with Cdk2 F80C (Cdk2(C177A, F80C)) | Rate constant with Cdk2 H71C (Cdk2(H71C) (C177A))
1 | C=CC(=O)NC1(C(N)=O)CCCCC1 [EL-1170] | 0.953 | 0.002313 | 0.5731 | 0.001391 | 0.00308 | 1.986 | 0.004821 | 1.271 | 0.304 | 0.0007379 | 0.3126 | 0.0007587 | 0 | 0.00243 | 0.002427 | 0.3641 | 0.0008836 | 0.5052 | 0.001226 | 
2 | C=CS(=O)(=O)c1ccccc1 [EN001] | 0.06554 | 0.4008 | 1.394 | 8.524 |  | 1.608 | 9.832 |  | 0.2211 | 1.352 | 0.5145 | 3.146 | 0.3485 |  | 6.115 | 0.3977 | 2.432 | 0.0006656 | 0.00407 | 2.131
3 | O=C(CCl)N1CCSc2ccccc21 [EN004] | 0.08978 | 0.03286 | 0 |  |  | 4.361 | 1.596 |  | 0.1248 | 0.04566 | 4.615 | 1.689 | 0.3522 |  | 0.366 | 0.243 | 0.08895 | 0.01666 | 0.006096 | 0.1289
4 | O=C(CCl)NCCc1c[nH]c2ccccc12 [EN005] | 5.886 | 0.01491 | 11.33 | 0.02869 |  | 6.167 | 0.01562 |  | 0.5681 | 0.001439 | 13.55 | 0.03433 | 0.852 |  | 0.002533 | 0 |  | 0.8693 | 0.002202 | 0.002158
5 | O=C(c1ccccc1)[C@@H]1O[C@H]1c1ccccc1 [EN006] | 4.709 | 0.01045 | 34.33 | 0.07618 |  | 1.315 | 0.002918 |  | 0.411 | 0.000912 | 74.76 | 0.1659 | 12.95 |  | 0.002219 | 5.777 | 0.01282 | 7.7693E−12 | 1.724E−14 | 0.02873
6 | O=S1(=O)C=CC(Br)C1 (stereo not shown) [EN010] | 0.3144 | 0.1896 | 4.219 | 2.544 |  | 2.833 | 1.708 |  | 0.3799 | 0.2291 | 0.9531 | 0.5747 | 0.1025 |  | 0.603 | 0.198 | 0.1194 | 0.00861 | 0.005192 | 0.06183
7 | O=C(CCl)N1CCCCCC1 [EN011] | 0.09796 | 0.01298 | 0.4574 | 0.06061 |  | 0.6051 | 0.08018 |  | 0.02161 | 0.002863 | 1.075 | 0.1424 | 0.08604 |  | 0.1325 | 0.1463 | 0.01938 | 0 |  | 0.0114
